Measurements from BindingDB's records for doi:10.1016/j.chembiol.2015.08.013 (Aston University, 2015).

Experiments:
Assay in all cases: TG Activity Assays
[1] = biological target: T1, Protein-glutamine gamma-glutamyltransferase 2 (Homo sapiens, UniProt P21980)
T1 sequence (P21980 whole entry): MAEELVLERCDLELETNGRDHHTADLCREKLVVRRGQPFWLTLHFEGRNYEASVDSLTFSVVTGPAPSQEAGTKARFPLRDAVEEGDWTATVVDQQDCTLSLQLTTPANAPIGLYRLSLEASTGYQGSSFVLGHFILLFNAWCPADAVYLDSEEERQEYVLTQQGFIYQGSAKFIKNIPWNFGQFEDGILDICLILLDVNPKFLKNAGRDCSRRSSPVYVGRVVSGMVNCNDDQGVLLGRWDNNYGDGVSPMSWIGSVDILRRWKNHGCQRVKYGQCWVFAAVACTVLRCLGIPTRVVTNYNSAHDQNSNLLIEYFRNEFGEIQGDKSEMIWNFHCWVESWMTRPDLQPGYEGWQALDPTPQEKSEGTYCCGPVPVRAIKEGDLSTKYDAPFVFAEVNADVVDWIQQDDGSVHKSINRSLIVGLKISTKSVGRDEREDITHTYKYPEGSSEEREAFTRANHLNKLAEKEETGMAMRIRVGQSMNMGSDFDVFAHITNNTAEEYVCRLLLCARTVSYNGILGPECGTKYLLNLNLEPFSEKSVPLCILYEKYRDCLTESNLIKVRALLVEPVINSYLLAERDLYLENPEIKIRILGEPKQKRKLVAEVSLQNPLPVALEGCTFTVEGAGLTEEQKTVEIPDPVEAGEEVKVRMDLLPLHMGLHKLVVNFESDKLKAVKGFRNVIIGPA
Protocol: (§1) The incorporated biotinylated peptides were measured using horseradish peroxidase-conjugated streptavidin and then measured using o-phenylenediamine dihydrochloride substrates. The absorbance was measured at 490 nm using a microplat

[2] = biological target: T2, Protein-glutamine gamma-glutamyltransferase E (Homo sapiens, UniProt Q08188)
T2 sequence (Q08188 whole entry): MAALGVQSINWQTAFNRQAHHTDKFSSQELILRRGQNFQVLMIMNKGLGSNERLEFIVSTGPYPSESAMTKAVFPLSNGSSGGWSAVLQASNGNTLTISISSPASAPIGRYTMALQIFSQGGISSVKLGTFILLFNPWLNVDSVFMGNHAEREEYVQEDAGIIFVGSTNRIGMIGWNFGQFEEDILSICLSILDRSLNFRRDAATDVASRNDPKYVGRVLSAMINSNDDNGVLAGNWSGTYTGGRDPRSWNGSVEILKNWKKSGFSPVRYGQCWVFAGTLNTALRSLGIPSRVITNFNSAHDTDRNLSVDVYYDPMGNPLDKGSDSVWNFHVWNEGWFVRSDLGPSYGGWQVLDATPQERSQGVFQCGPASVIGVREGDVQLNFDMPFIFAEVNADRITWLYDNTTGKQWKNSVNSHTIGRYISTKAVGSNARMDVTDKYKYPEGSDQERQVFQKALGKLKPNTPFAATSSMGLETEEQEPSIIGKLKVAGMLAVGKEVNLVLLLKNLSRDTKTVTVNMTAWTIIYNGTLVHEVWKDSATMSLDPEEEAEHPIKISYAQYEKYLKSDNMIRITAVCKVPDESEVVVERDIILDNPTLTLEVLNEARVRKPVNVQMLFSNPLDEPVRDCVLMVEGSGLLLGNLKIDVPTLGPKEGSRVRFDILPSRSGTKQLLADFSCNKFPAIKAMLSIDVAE
Protocol: as §1

[3] = biological target: T3, Protein-glutamine gamma-glutamyltransferase K (Homo sapiens, UniProt P22735)
T3 sequence (P22735 whole entry): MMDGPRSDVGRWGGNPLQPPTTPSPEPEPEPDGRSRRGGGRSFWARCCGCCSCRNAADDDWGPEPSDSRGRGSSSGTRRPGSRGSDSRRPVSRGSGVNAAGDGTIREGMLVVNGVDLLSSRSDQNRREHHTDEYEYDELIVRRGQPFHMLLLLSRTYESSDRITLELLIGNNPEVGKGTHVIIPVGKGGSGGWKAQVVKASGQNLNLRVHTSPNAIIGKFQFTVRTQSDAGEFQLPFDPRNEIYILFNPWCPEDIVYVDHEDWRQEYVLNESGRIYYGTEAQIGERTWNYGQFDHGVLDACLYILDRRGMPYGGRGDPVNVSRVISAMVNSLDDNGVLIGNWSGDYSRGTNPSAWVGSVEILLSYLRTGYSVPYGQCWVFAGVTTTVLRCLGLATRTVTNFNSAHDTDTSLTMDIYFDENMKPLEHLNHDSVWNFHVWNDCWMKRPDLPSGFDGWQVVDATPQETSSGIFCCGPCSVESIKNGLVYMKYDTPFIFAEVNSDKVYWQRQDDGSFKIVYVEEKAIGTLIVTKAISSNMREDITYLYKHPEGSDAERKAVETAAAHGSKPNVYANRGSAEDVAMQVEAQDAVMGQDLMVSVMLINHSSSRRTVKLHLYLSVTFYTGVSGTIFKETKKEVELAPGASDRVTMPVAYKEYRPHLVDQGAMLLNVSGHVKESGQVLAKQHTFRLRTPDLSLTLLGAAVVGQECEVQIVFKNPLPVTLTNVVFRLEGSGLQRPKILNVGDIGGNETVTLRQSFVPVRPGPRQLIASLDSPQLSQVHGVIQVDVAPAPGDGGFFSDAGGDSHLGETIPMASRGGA
Protocol: as §1

[4] = biological target: T4, Protein-glutamine gamma-glutamyltransferase 6 (Homo sapiens, UniProt O95932)
T4 sequence (O95932 whole entry): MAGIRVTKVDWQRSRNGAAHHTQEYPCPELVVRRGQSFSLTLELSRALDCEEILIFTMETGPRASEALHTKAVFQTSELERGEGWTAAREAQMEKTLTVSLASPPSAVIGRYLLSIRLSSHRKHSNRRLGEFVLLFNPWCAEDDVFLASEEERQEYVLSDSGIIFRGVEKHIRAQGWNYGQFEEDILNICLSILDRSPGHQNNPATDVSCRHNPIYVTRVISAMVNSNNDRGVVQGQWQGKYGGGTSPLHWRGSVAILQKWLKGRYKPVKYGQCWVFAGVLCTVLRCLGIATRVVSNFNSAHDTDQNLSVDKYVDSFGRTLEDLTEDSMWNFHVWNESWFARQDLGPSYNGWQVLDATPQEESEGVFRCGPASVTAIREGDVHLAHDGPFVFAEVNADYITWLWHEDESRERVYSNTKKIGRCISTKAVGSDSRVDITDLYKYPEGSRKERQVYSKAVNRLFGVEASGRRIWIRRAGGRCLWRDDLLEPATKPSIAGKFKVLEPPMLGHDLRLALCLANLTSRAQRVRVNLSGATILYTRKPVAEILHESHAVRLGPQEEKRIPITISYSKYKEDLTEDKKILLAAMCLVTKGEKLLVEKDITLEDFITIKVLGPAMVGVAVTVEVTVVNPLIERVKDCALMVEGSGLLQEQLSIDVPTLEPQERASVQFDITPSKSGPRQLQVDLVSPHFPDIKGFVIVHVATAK
Protocol: as §1

IC50 [1] [µM] | IC50 [2] [µM] | IC50 [3] [µM] | IC50 [4] [µM] | Structure (SMILES)
0.889 | > 100 | > 100 | > 10 | C[S+](C)CC(=O)NCC(=O)N1CCN(C(=O)C23CC4CC(CC(C4)C2)C3)CC1 [[2-[[2-[4-(Adamantane-1-carbonyl)piperazin-1-yl]-2-oxo-ethyl]amino]-2-oxo-ethyl]-dimethyl-sulfonium bromide (1e)]
0.775 | > 100 | > 100 | > 10 | C[S+](C)CC(=O)NCC(=O)N1CCN(C(=O)OCC23CC4CC(CC(C4)C2)C3)CC1 [[2-[[2-[4-(1-Adamantylmethoxycarbonyl)piperazin-1-yl]-2-oxo-ethyl]amino]-2-oxoethyl]-dimethyl-sulfonium bromide (1f)]
 | > 100 | > 100 | > 10 | C=CC(=O)NCC(=O)N1CCN(C(=O)OCC23CC4CC(CC(C4)C2)C3)CC1 [1-Adamantylmethyl 4-[2-(prop-2-enoylamino)acetyl]piperazine-1-carboxylate (3f)]
0.125 | 11 | 2.2 | 2 | C=CC(=O)NCC(=O)N1CCN(C(=O)C23CC4CC(CC(C4)C2)C3)CC1 [N-[2-[4-(adamantane-1-carbonyl)piperazin-1-yl]-2-oxo-ethyl]prop-2-enamide (3e)]
 | > 100 | > 100 | > 10 | CN(C)c1cccc2c(S(=O)(=O)N3CCN(C(=O)CNC(=O)C[S+](C)C)CC3)cccc12 [[2-[[2-[4-[[5-(Dimethylamino)-1-naphthyl]sulfonyl]piperazin-1-yl]-2-oxo-ethyl]amino]-2-oxo-ethyl]-dimethyl-sulfonium bromide (1h)]
